From patent US20090105238A1, “Compounds and Relative use for the Control of Phytopathogens” (ISAGRO RICERCA S.r.l, priority 2005, published 2009)

Key:
Plasmopara viticola = assay: Fungicidal (preventive) activity against Peronospora of vines, leaf spray; type: in vivo, Plasmopara viticola on vine (cultivar Dolcetto); details: for Activity 125 ppm / Activity 250 ppm: 7-day preventive activity; for Activity 125 ppm: scale 0 to 100 (healthy plant); for Activity 250 ppm: scale 0 (completely infected plant) to 100 (healthy plant); for Activity (dose ppm): 7-day preventive, scale 0-100
Description: Determination of the Fungicidal Activity Against Peronospora of Vines (Plasmopara viticola) […] After remaining 24 hours in a conditioned environment, the plants were sprayed on both sides of the leaves with an aqueous suspension of conidia of Plasmopara viticola (20,000 conidia per cm^3). The plants are kept in a humidity saturated environment at 21° C. for the incubation period of the fungus.

Puccinia recondita = assay: Fungicidal (preventive) activity against wheat rust, leaf spray; type: in vivo, Puccinia recondita on wheat (cultivar Gemini); details: 5-day preventive, scale 0-100
Description: Determination of the Fungicidal Activity Against Wheat Rust (Puccinia recondita)
(§1) Leaves of wheat plants (cultivar Gemini), grown in vases in a conditioned environment (20±1° C., 70% relative humidity) are treated by spraying both sides of the leaves with compounds 1, 2 and 3, dispersed in a hydroacetone solution at 20% by volume in acetone. […]
(§2) The plants are kept in a humidity saturated environment at a temperature ranging from 18 to 24° C. for the incubation period of the fungus.
At the end of this period (14 days), the fungicidal activity is evaluated according to an evaluation percentage scale from 0 (completely infected plant) to 100 (healthy plant).

Erysiphe graminis = assay: Fungicidal (preventive) activity against oidium of wheat, leaf spray; type: in vivo, Erysiphe graminis on wheat (cultivar Gemini); details: 5-day preventive, scale 0-100
Description: Determination of the Fungicidal Activity Against Oidium of Wheat (Erysiphe graminis)
as §1, §2
At the end of this period (12 days), the fungicidal activity is evaluated according to an evaluation percentage scale from 0 (completely infected plant) to 100 (healthy plant).

PR1 = assay: Gene response (PR1 expression, quantitative PCR) in treated seedlings; type: in vivo, arabidopsis thaliana; details: 800 ppm and 1600 ppm; leaves collected after 24 hours of treatment; compared with blank and glycine betaine (FIG. 1)
Description: Determination of the Gene Response of the Compounds Having General Formula (I) and their Mixtures with Other Fungicides
Four-week-old seedlings of arabidopsis thaliana were treated with the compounds having general formula (I) or their mixtures with other fungicides and the leaves were collected after 24 hours of treatment.
The total RNA was extracted from 0.05 g of fresh tissue using the “Genelute mammalian total RNA kit (Sigma)” according to the protocol indications. The cDNA were synthesized using “RevertAid™ M-MuLV Reverse Transcriptase” commercialized by Fermentas Life Sciences according to the following protocol: 2 μg of total RNA were mixed with 0.5 μg of oligo(dT) 18.
Deionized water (nuclease free) was then added to bring the reaction volume to 11 μl, the reaction was subsequently incubated at 70° C. for 5 minutes and then cooled in ice.
The following reagents were then added to the mixture:
4 μl of 5× reaction buffer, 10 mM of dNTP mix, 20 units of Ribonuclease inhibitor.
The reaction was incubated at 37° C. for 5 minutes, 200 units of RevertAid™ M-MuLV Reverse Transcriptase were subsequently added to the mixture and the reaction was incubated at 42° C. for 60 minutes. […]
A quantitative PCR analysis was effected on the cDNA using a mixture of primer/competimers of the ribosomal RNA 18S as internal standard in a ratio of 9:1. […]

| Compound | Activity 125 ppm (Plasmopara viticola) | Activity 250 ppm (Plasmopara viticola) | also measured |
| --- | --- | --- | --- |
| CCCCCCCCCCCC[N+](C)(C)CC(O)CS(=O)(=O)[O-] (centres unmarked) [Compound 5, Laurylhydroxysultaine] | 85 | 99 | – |
| CCCCCCCCCCCC(=O)NCCC[N+](C)(C)CC(=O)[O-] [Compound 7, Laurylamidopropylbetaine] | 95 | 100 | – |
| CCCCCCCCCCCC(=O)NCCC[N+](C)(C)C(C(=O)[O-])C(C)C (centres unmarked) [Compound 24, laurylamidopropyl[L]valinebetaine] | 88 | 99 | – |
| CCCCCCCCCCCC(=O)NCCC[N+]1(C)CCCC1C(=O)[O-] (centres unmarked) [Compound 25, laurylamidopropyl[L]prolinebetaine] | 95 | 100 | – |
| CCCCCCCCCCCC(=O)NCCC[N+](C)(C)C(C)C(=O)[O-] (centres unmarked) [Compound 26, laurylamidopropyl[L]alaninebetaine] | 90 | 95 | – |
| CCCCCCCCCCCC(=O)NCCC[N+](C)(C)C(CC(=O)[O-])c1ccccc1 (stereo not drawn) [Compound 28, laurylamidopropyl- β-phenylalaninebetaine] | 90 | 99 | – |
| CCCCCCCCCCCC(=O)NCCC[N+](C)(C)C(CC(=O)[O-])c1ccc(Cl)cc1 (stereo not drawn) [Compound 29, laurylamidopropyl-β-4-chlorophenylalaninebetaine] | 90 | 95 | – |
| CCCCCCCCCCCC(=O)NCCC[N+](C)(C)CCC(=O)[O-] [Compound 30, laurylamidopropyl- β-alaninebetaine] | 85 | 90 | – |
| C[N+](C)(C)CC(=O)[O-] [Glycine betaine, reference compound] | – | – | Activity (dose ppm) (Plasmopara viticola; 30 ppm): 30 |
| COC(=O)CC(NC(=O)[C@@H](NC(=O)OC(C)C)C(C)C)c1ccc(Cl)cc1 (some centres unmarked) [IR5885, reference compound] | – | – | Activity (dose ppm) (Plasmopara viticola; 0.22 ppm): 15; Activity (dose ppm) (Plasmopara viticola; 0.45 ppm): 41; Activity (dose ppm) (Puccinia recondita; 500 ppm): 15; Activity (dose ppm) (Erysiphe graminis; 500 ppm): 20 |
| FC(F)C(F)(F)OCC(Cn1cncn1)c1ccc(Cl)cc1Cl (centres unmarked) [Tetraconazole, tetraconazole] | – | – | Activity (dose ppm) (Plasmopara viticola; 30 ppm): 20; Activity (dose ppm) (Puccinia recondita; 30 ppm): 58; Activity (dose ppm) (Erysiphe graminis; 1.8 ppm): 48 |
| Cholanylamidopropylbetaine [Compound 11] | 90 | 94 | – |
| Cholesterylcarbonylamidopropylbetaine [Compound 10] | 90 | 95 | – |
| Cocamidopropyl- β-4-chlorophenylalaninebetaine [Compound 36] | 85 | 94 | – |
| Cocamidopropyl- β-alaninebetaine [Compound 37] | 86 | 98 | – |
| Cocamidopropyl-β-phenylalaninebetaine [Compound 35] | 89 | 95 | – |
| Cocamidopropyl[L]phenylglycinebetaine [Compound 34] | 88 | 97 | – |
| Cocamidopropyl[L]prolinebetaine [Compound 32] | 88 | 95 | – |
| Cocamidopropyl[L]valinebetaine [Compound 31] | 85 | 98 | – |
| Cocamidopropylbetaine [Compound 8] | 98 | 100 | Activity (dose ppm) (Plasmopara viticola; 30 ppm): 30; Activity (dose ppm) (Puccinia recondita; 125 ppm): 29 (125 ppm); Activity (dose ppm) (Erysiphe graminis; 500 ppm): 20 (500 ppm); gene response (PR1): exceptional gene response |
| Cocamidopropylhydroxysultaine [Compound 9] | 95 | 100 | – |
| cocamidopropyl[L]alaninebetaine [Compound 33] | 85 | 96 | – |
